Activity calls are given as the source filed them. How the calls were made is not given here.
Tested on: rodent carcinogenicity bioassays, tumor incidence
Assay: CCRIS carcinogenicity studies
Outline: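 NCI-built, expert-reviewed records of carcinogenicity and related test outcomes (mutagenicity, tumor promotion/inhibition) compiled from published and report sources, historical span 1985-2011, not updated.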

CC(C)n1c(/C=C/[C@H](O)C[C@H](O)CC(=O)O)c(-c2ccc(F)cc2)c2ccccc21
carcinogen call (Species: MOUSE, Strain/Sex: CD-1/FEMALE (70/GROUP), Route: ORAL (GAVAGE), Dose: 0, 0.3, 15, 30 MG/KG/D IN 1% CARBOXYMETHYLCELLULOSE FOR 85 WK, Dose: 0, 0.3, 15, 30 MG/KG/D IN 1% CARBOXYMETHYLCELLULOSE FOR 85 WK, Tumor Site: Type of Lesion: FORESTOMACH: SQUAMOUS PAPILLOMAS): active; positive | carcinogen call (Species: MOUSE, Strain/Sex: CD-1/FEMALE (80/GROUP), Route: ORAL (GAVAGE), Dose: 0, 50, 150, 350 MG/KG/D IN 1% CARBOXYMETHYLCELLULOSE FOR 93 WK, Dose: 0, 50, 150, 350 MG/KG/D IN 1% CARBOXYMETHYLCELLULOSE FOR 93 WK): inactive; negative | carcinogen call (Species: MOUSE, Strain/Sex: CD-1/FEMALE, Route: GAVAGE, Dose: 0, 0.3, 15, 30 MG/KG/D FOR 52 OR 85 WK (STUDY DURATION: 86 WK), Dose: 0, 0.3, 15, 30 MG/KG/D FOR 52 OR 85 WK (STUDY DURATION: 86 WK), Tumor Site: Type of Lesion: FORESTOMACH: PAPILLOMA): active; positive | carcinogen call (Species: MOUSE, Strain/Sex: CD-1/FEMALE, Route: GAVAGE, Dose: 0, 50, 150, 350 MG/KG/D FOR 52 OR 84 WK (HIGH DOSE GROUP TERMINATED IN WK 23) (STUDY DURATION: 93 WK), Dose: 0, 50, 150, 350 MG/KG/D FOR 52 OR 84 WK (HIGH DOSE GROUP TERMINATED IN WK 23) (STUDY DURATION: 93 WK)): inactive; negative | carcinogen call (Species: MOUSE, Strain/Sex: CD-1/MALE (70/GROUP), Route: ORAL (GAVAGE), Dose: 0, 0.3, 15, 30 MG/KG/D IN 1% CARBOXYMETHYLCELLULOSE FOR 85 WK, Dose: 0, 0.3, 15, 30 MG/KG/D IN 1% CARBOXYMETHYLCELLULOSE FOR 85 WK): inactive; negative | carcinogen call (Species: MOUSE, Strain/Sex: CD-1/MALE (80/GROUP), Route: ORAL (GAVAGE), Dose: 0, 50, 150, 350 MG/KG/D IN 1% CARBOXYMETHYLCELLULOSE FOR 84 WK, Dose: 0, 50, 150, 350 MG/KG/D IN 1% CARBOXYMETHYLCELLULOSE FOR 84 WK): inactive; negative | carcinogen call (Species: MOUSE, Strain/Sex: CD-1/MALE, Route: GAVAGE, Dose: 0, 0.3, 15, 30 MG/KG/D FOR 52 OR 85 WK (STUDY DURATION: 86 WK), Dose: 0, 0.3, 15, 30 MG/KG/D FOR 52 OR 85 WK (STUDY DURATION: 86 WK)): inactive; negative | carcinogen call (Species: MOUSE, Strain/Sex: CD-1/MALE, Route: GAVAGE, Dose: 0, 50, 150, 350 MG/KG/D FOR 52 OR 84 WK (HIGH DOSE GROUP TERMINATED IN WK 23) (STUDY DURATION: 84 WK), Dose: 0, 50, 150, 350 MG/KG/D FOR 52 OR 84 WK (HIGH DOSE GROUP TERMINATED IN WK 23) (STUDY DURATION: 84 WK)): inactive; negative | carcinogen call (Species: RAT, Strain/Sex: CD (SPRAGUE-DAWLEY)/FEMALE (75/GROUP), Route: ORAL (GAVAGE), Dose: 0, 0.03, 0.3, 3 MG/KG/D IN 1% CARBOXYMETHYLCELLULOSE FOR 101 WKS, Dose: 0, 0.03, 0.3, 3 MG/KG/D IN 1% CARBOXYMETHYLCELLULOSE FOR 101 WKS): inactive; negative | carcinogen call (Species: RAT, Strain/Sex: CD (SPRAGUE-DAWLEY)/FEMALE (75/GROUP), Route: ORAL (GAVAGE), Dose: 0, 6, 9, 18-24 MG/KG/D IN 1% CARBOXYMETHYLCELLULOSE FOR 104 WKS, Dose: 0, 6, 9, 18-24 MG/KG/D IN 1% CARBOXYMETHYLCELLULOSE FOR 104 WKS): inactive; negative | carcinogen call (Species: RAT, Strain/Sex: CD (SPRAGUE-DAWLEY)/MALE (75/GROUP), Route: ORAL (GAVAGE), Dose: 0, 0.03, 0.3, 3 MG/KG/D IN 1% CARBOXYMETHYLCELLULOSE FOR 95 WKS, Dose: 0, 0.03, 0.3, 3 MG/KG/D IN 1% CARBOXYMETHYLCELLULOSE FOR 95 WKS): inactive; negative | carcinogen call (Species: RAT, Strain/Sex: CD (SPRAGUE-DAWLEY)/MALE (75/GROUP), Route: ORAL (GAVAGE), Dose: 0, 6, 9, 18-24 MG/KG/D IN 1% CARBOXYMETHYLCELLULOSE FOR 104 WKS, Dose: 0, 6, 9, 18-24 MG/KG/D IN 1% CARBOXYMETHYLCELLULOSE FOR 104 WKS, Tumor Site: Type of Lesion: THYROID: FOLLICULAR ADENOMA (11/75)): active; positive | carcinogen call (Species: RAT, Strain/Sex: STRAIN-CD/FEMALE, Route: GAVAGE, Dose: 0, 0.03, 0.3, 3 MG/KG/D FOR 95 WK (STUDY DURATION: 114 WK), Dose: 0, 0.03, 0.3, 3 MG/KG/D FOR 95 WK (STUDY DURATION: 114 WK)): inactive; negative | carcinogen call (Species: RAT, Strain/Sex: STRAIN-CD/FEMALE, Route: GAVAGE, Dose: 0, 6, 9, 18-24 MG/KG/D FOR 104 WK (STUDY DURATION: 104 WK), Dose: 0, 6, 9, 18-24 MG/KG/D FOR 104 WK (STUDY DURATION: 104 WK)): inactive; negative | carcinogen call (Species: RAT, Strain/Sex: STRAIN-CD/MALE, Route: GAVAGE, Dose: 0, 0.03, 0.3, 3 MG/KG/D FOR 95 WK (STUDY DURATION: 114 WK), Dose: 0, 0.03, 0.3, 3 MG/KG/D FOR 95 WK (STUDY DURATION: 114 WK)): inactive; negative | carcinogen call (Species: RAT, Strain/Sex: STRAIN-CD/MALE, Route: GAVAGE, Dose: 0, 6, 9, 18-24 MG/KG/D FOR 104 WK (STUDY DURATION: 104 WK), Dose: 0, 6, 9, 18-24 MG/KG/D FOR 104 WK (STUDY DURATION: 104 WK)): inactive; negative

ClC(Cl)=C(Cl)C(Cl)=C(Cl)Cl
carcinogen call (Species: RAT, Strain/Sex: SPRAGUE-DAWLEY/MALE,FEMALE, Route: ORAL, Dose: 0.2, 2.0, 20 MG/KG/DAY IN DIET, Dose: 0.2, 2.0, 20 MG/KG/DAY IN DIET, Tumor Site: Type of Lesion: KIDNEY: RENAL TUBULAR ADENOMA, ADENOCARCINOMA): active; positive

CCOP(=S)(OCC)Oc1ccc2c(C)c(Cl)c(=O)oc2c1
carcinogen call (Species: MOUSE, Strain/Sex: B6C3F1/FEMALE, Route: ORAL, Dose: 0, 10, 20 PPM IN DIET, Dose: 0, 10, 20 PPM IN DIET): inactive; negative | carcinogen call (Species: MOUSE, Strain/Sex: B6C3F1/MALE, Route: ORAL, Dose: 0, 10, 20 PPM IN DIET, Dose: 0, 10, 20 PPM IN DIET): inactive; negative | carcinogen call (Species: RAT, Strain/Sex: F344/FEMALE, Route: ORAL, Dose: 0, 10, 20 PPM IN DIET, Dose: 0, 10, 20 PPM IN DIET): inactive; negative | carcinogen call (Species: RAT, Strain/Sex: F344/MALE, Route: ORAL, Dose: 0, 10, 20 PPM IN DIET, Dose: 0, 10, 20 PPM IN DIET): inactive; negative | carcinogen call (Species: Rat, Strain/Sex: Wistar/Female (50/group), Route: Oral, Dose: 0 (1% peanut oil), 1, 5, 25 ppm in diet for 24 mo, test material purity 99.2%, Dose: 0 (1% peanut oil), 1, 5, 25 ppm in diet for 24 mo, test material purity 99.2%): inactive; negative. according to dpr evaluator; original data not presented. cholinesteras | carcinogen call (Species: Rat, Strain/Sex: Wistar/Male (50/group), Route: Oral, Dose: 0 (1% peanut oil), 1, 5, 25 ppm in diet for 24 mo, test material purity 99.2%, Dose: 0 (1% peanut oil), 1, 5, 25 ppm in diet for 24 mo, test material purity 99.2%): inactive; negative. according to dpr evaluator; original data not presented. cholinesteras

[Be+2]
carcinogen call (Species: RAT, Strain/Sex: WISTAR/FEMALE, Route: INTRATRACHEAL, Dose: 50 UG THEN 25 UG AFTER 10 MO, Tumor Site: Type of Lesion: LUNG: ADENOMA, ADENOCARCINOMA, ALVEOLAR/BRONCHIOLAR TUMOR): active; positive

From PubChem BioAssay AID1259411 (Chemical Carcinogenesis Research Information System (CCRIS), 2018)
